Assay results: patent US20200361895A1, “NOVEL SULFONAMIDE CARBOXAMIDE COMPOUNDS” (Inflazome Limited, priority 2017, published 2020)
Structures can show the parent of a compound that is named as a salt.

The compounds below were run against NLRP3 (Homo sapiens, UniProt Q96P20) (assay: THP-1 cells pyroptosis assay (LPS + nigericin, resazurin readout; THP IC50)).
Format: cell-based
Parameters: Seed THP-1 cells (25,000 cells/well) containing 1.0 μg/ml LPS in 40 μl of RPMI medium; host or cells: THP-1 cells
Protocol: THP-1 cells (ATCC #TIB-202) were grown in RPMI containing L-glutamine (Gibco #11835) supplemented with 1 mM sodium pyruvate (Sigma #S8636) and penicillin (100 units/ml)/streptomycin (0.1 mg/ml) (Sigma #P4333) in 10% Fetal Bovine Serum (FBS) (Sigma #F0804). The cells were routinely passaged and grown to confluency (˜10^6 cells/ml). On the day of the experiment, THP-1 cells were harvested and resuspended into RPMI medium (without FBS). The cells were then counted and viability (>90%) checked by Trypan blue (Sigma #T8154). Appropriate dilutions were made to give a concentration of 625,000 cells/ml. To this diluted cell solution was added LPS (Sigma #L4524) to give a 1 μg/ml Final Assay Concentration (FAC). 40 μl of the final preparation was aliquoted into each well of a 96-well plate. The plate thus prepared was used for compound screening.
The following method step-by-step assay was followed for compound screening. • 1. Seed THP-1 cells (25,000 cells/well) containing 1.0 μg/ml LPS in 40 μl of RPMI medium (without FBS) in 96-well, black walled, clear bottom cell culture plates coated with poly-D-lysine (VWR #734-0317) • 2. Add 5 μcompound (8 points half-log dilution, with 10 μM top dose) or vehicle (DMSO 0.1% FAC) to the appropriate wells • 3. Incubate for 3 hrs at 37° C. and 5% CO2 • 4. Add 5 μnigericin (Sigma #N7143) (FAC 5 μM) to all wells • 5. Incubate for 1 hr at 37° C. and 5% CO2 • 6. At the end of the incubation period, spin plates at 300×g for 3 mins and remove supernatant • 7. Then add 50 μl of resazurin (Sigma #R7017) (FAC 100 μM resazurin in RPMI medium without FBS) and incubate plates for a further 1-2 hrs at 37° C. and 5% CO2 • 8. Plates were read in an Envision reader at Ex 560 nm and Em 590 nm • 9. IC50 data is fitted to a non-linear regression equation (log inhibitor vs response-variable slope 4-parameters)

NLRP3, sequence (Q96P20 whole entry): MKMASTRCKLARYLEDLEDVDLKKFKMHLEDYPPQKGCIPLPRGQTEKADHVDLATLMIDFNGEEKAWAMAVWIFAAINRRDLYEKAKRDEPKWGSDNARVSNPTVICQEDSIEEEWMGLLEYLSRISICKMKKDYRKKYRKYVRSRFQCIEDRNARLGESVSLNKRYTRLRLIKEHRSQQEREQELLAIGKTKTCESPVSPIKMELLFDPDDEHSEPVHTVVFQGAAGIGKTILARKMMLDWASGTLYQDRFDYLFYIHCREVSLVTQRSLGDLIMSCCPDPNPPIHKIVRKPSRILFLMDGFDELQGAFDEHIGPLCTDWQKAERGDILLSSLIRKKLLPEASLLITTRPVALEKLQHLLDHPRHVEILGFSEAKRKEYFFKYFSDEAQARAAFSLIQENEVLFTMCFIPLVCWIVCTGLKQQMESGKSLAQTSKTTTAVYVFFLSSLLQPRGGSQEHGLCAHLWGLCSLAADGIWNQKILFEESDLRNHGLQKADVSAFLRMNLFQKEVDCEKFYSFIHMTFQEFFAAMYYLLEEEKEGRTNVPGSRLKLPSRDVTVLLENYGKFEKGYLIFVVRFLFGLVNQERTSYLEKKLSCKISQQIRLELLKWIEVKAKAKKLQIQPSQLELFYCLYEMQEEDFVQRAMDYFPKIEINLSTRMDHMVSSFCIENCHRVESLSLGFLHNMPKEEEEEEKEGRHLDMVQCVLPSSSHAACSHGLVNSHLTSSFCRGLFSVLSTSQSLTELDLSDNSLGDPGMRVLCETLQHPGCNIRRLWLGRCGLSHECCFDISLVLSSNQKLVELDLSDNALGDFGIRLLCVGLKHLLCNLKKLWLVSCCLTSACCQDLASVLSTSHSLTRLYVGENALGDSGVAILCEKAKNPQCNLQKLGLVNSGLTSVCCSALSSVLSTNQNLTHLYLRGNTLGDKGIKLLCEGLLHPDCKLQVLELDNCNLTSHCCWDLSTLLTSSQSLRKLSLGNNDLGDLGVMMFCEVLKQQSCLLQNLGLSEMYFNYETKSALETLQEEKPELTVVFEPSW

IC50, ≤ 5 µM:
CC(C)c1cc(F)cc(-c2ccnc(C#N)c2)c1NC(=O)NS(=O)(=O)C(C)c1ccccc1 (stereo not drawn) [Example 139, N-((2-(2-Cyanopyridin-4-yl)-4-fluoro-6-isopropylphenyl)carbamoyl)-1-phenylethanesulfonamide]
COc1cc(-c2cc(F)cc(C(C)C)c2NC(=O)NS(=O)(=O)C(C)c2ccccc2)ccn1 (stereo not drawn) [Example 140, N-((4-Fluoro-2-isopropyl-6-(2-methoxypyridin-4-yl)phenyl)carbamoyl)-1-phenylethanesulfonamide]
CC(c1ccccc1)S(=O)(=O)NC(=O)Nc1c(-c2ccncc2)cc(F)c2c1CCC2 (stereo not drawn) [Example 142, N-((7-Fluoro-5-(pyridin-4-yl)-2,3-dihydro-1H-inden-4-yl)carbamoyl)-1-phenylethanesulfonamide]
COc1cc(-c2cc3c(cc2NC(=O)NS(=O)(=O)c2ccn(C4CC4)n2)CCC3)ccn1 [Example 144, 1-Cyclopropyl-N-((6-(2-methoxypyridin-4-yl)-2,3-dihydro-1H-inden-5-yl)carbamoyl)-1H-pyrazole-3-sulfonamide]
CCN(CCCS(=O)(=O)NC(=O)Nc1c(-c2ccnc(C#N)c2)cc(F)cc1C(C)C)Cc1ccccc1 [Example 151, 3-(Benzyl(ethyl)amino)-N-((2-(2-cyanopyridin-4-yl)-4-fluoro-6-isopropylphenyl)carbamoyl)propane-1-sulfonamide]
COCCCS(=O)(=O)NC(=O)Nc1c(-c2ccnc(C#N)c2)cc(F)cc1C(C)C [Example 154, N-((2-(2-Cyanopyridin-4-yl)-4-fluoro-6-isopropylphenyl)carbamoyl)-3-methoxypropane-1-sulfonamide]
COCCCS(=O)(=O)NC(=O)Nc1c(-c2ccncc2)cc(F)c2c1CCC2 [Example 157, N-((7-Fluoro-5-(pyridin-4-yl)-2,3-dihydro-1H-inden-4-yl)carbamoyl)-3-methoxypropane-1-sulfonamide]
CN1CCC(CS(=O)(=O)NC(=O)Nc2c(-c3ccncc3)cc(F)c3c2CCC3)C1 (stereo not drawn) [Example 165, N-((7-Fluoro-5-(pyridin-4-yl)-2,3-dihydro-1H-inden-4-yl)carbamoyl)-1-(1-methylpyrrolidin-3-yl) methanesulfonamide]
CC(C)c1cccc(-n2ccnc2)c1NC(=O)NS(=O)(=O)c1ccn(C(C)C)n1 [Example 204, N-((2-(1H-Imidazol-1-yl)-6-isopropylphenyl)carbamoyl)-1-isopropyl-1H-pyrazole-3-sulfonamide]
CC(C)n1ccc(S(=O)(=O)NC(=O)Nc2c(-c3cccnc3)cc(F)cc2-c2cccnc2)n1 [Example 208, N-((4-Fluoro-2,6-di(pyridin-3-yl)phenyl)carbamoyl)-1-isopropyl-1H-pyrazole-3-sulfonamide]
COc1cc(-c2ccc3ncccc3c2NC(=O)NS(=O)(=O)c2ccn(C(C)C)n2)ccn1 [Example 212, 1-Isopropyl-N-((6-(2-methoxypyridin-4-yl)quinolin-5-yl)carbamoyl)-1H-pyrazole-3-sulfonamide]
COc1cc(-c2ccc3c(c2NC(=O)NS(=O)(=O)c2ccn(C(C)C)n2)CCC3)cc(C)n1 [Example 238, 1-Isopropyl-N-((5-(2-methoxy-6-methylpyridin-4-yl)-2,3-dihydro-1H-inden-4-yl)carbamoyl)-1H-pyrazole-3-sulfonamide, sodium salt]
CC(C)n1ccc(S(=O)(=O)NC(=O)Nc2c(-c3cncn3C)ccc3c2CCC3)n1 [Example 240, 1-Isopropyl-N-((5-(1-methyl-1H-imidazol-5-yl)-2,3-dihydro-1H-inden-4-yl)carbamoyl)-1H-pyrazole-3-sulfonamide]
CC(C)n1ccc(S(=O)(=O)NC(=O)Nc2c(-c3cncnc3)ccc3c2CCC3)n1 [Example 241, 1-Isopropyl-N-((5-(pyrimidin-5-yl)-2,3-dihydro-1H-inden-4-yl)carbamoyl)-1H-pyrazole-3-sulfonamide]

IC50, ≤ 10 µM:
COc1cc(-c2ccc3ccncc3c2NC(=O)NS(=O)(=O)c2ccn(C(C)C)n2)ccn1 [Example 217, 1-Isopropyl-N-((7-(2-methoxypyridin-4-yl)isoquinolin-8-yl)carbamoyl)-1H-pyrazole-3-sulfonamide]
Cc1cc(-c2ccc3c(c2NC(=O)NS(=O)(=O)c2ccn(C(C)C)n2)CCC3)n(C)n1 [Example 220, N-((5-(1,3-Dimethyl-1H-pyrazol-5-yl)-2,3-dihydro-1H-inden-4-yl)carbamoyl)-1-isopropyl-1H-pyrazole-3-sulfonamide]

IC50, ≤ 0.5 µM:
COc1cc(-c2cc(F)cc(C(C)C)c2NC(=O)NS(=O)(=O)CCc2ccccc2)ccn1 [Example 136, N-((4-Fluoro-2-isopropyl-6-(2-methoxypyridin-4-yl)phenyl)carbamoyl)-2-phenylethanesulfonamide]
COc1cc(-c2ccc3c(c2NC(=O)NS(=O)(=O)CCc2ccccc2)CCC3)ccn1 [Example 137, N-((5-(2-Methoxypyridin-4-yl)-2,3-dihydro-1H-inden-4-yl)carbamoyl)-2-phenylethanesulfonamide]
CCN(CC)CCCS(=O)(=O)NC(=O)Nc1c(-c2ccnc(OC)c2)cc(F)cc1C(C)C [Example 147, 3-(Diethylamino)-N-((4-fluoro-2-isopropyl-6-(2-methoxypyridin-4-yl)phenyl)carbamoyl)propane-1-sulfonamide]
CCN(CC)CCCS(=O)(=O)NC(=O)Nc1c(-c2ccnc(OC)c2)ccc2c1CCC2 [Example 148, 3-(Diethylamino)-N-((5-(2-methoxypyridin-4-yl)-2,3-dihydro-1H-inden-4-yl)carbamoyl)propane-1-sulfonamide]
CCN(CCCS(=O)(=O)NC(=O)Nc1c(-c2ccnc(OC)c2)cc(F)cc1C(C)C)Cc1ccccc1 [Example 150, 3-(Benzyl(ethyl)amino)-N-((4-fluoro-2-isopropyl-6-(2-methoxypyridin-4-yl)phenyl)carbamoyl)propane-1-sulfonamide]
CCN(CCCS(=O)(=O)NC(=O)Nc1c(-c2ccnc(OC)c2)ccc2c1CCC2)Cc1ccccc1 [Example 152, 3-(Benzyl(ethyl)amino)-N-((5-(2-methoxypyridin-4-yl)-2,3-dihydro-1H-inden-4-yl)carbamoyl)propane-1-sulfonamide]
COCCCS(=O)(=O)NC(=O)Nc1c(-c2ccnc(OC)c2)cc(F)cc1C(C)C [Example 155, N-((4-Fluoro-2-isopropyl-6-(2-methoxypyridin-4-yl)phenyl)carbamoyl)-3-methoxypropane-1-sulfonamide]
COCCCS(=O)(=O)NC(=O)Nc1c(-c2ccnc(OC)c2)ccc2c1CCC2 [Example 156, 3-Methoxy-N-((5-(2-methoxypyridin-4-yl)-2,3-dihydro-1H-inden-4-yl)carbamoyl)propane-1-sulfonamide]

IC50, ≤ 1 µM:
CC(C)CS(=O)(=O)NC(=O)Nc1c(-c2ccncc2)cc(F)c2c1CCC2 [Example 134, N-((7-Fluoro-5-(pyridin-4-yl)-2,3-dihydro-1H-inden-4-yl)carbamoyl)-2-methylpropane-1-sulfonamide]
CC(C)c1cc(F)cc(-c2ccnc(C#N)c2)c1NC(=O)NS(=O)(=O)CCc1ccccc1 [Example 135, N-((2-(2-Cyanopyridin-4-yl)-4-fluoro-6-isopropylphenyl)carbamoyl)-2-phenylethanesulfonamide]
COc1cc(-c2ccc3c(c2NC(=O)NS(=O)(=O)C(C)c2ccccc2)CCC3)ccn1 (stereo not drawn) [Example 141, N-((5-(2-Methoxypyridin-4-yl)-2,3-dihydro-1H-inden-4-yl)carbamoyl)-1-phenylethanesulfonamide]
COc1cc(-c2ccc3c(c2NC(=O)NS(C)(=O)=O)CCC3)ccn1 [Example 143, N-((5-(2-Methoxypyridin-4-yl)-2,3-dihydro-1H-inden-4-yl)carbamoyl)methanesulfonamide]
CCN(CC)CCCS(=O)(=O)NC(=O)Nc1c(-c2ccnc(C#N)c2)cc(F)cc1C(C)C [Example 146, N-((2-(2-Cyanopyridin-4-yl)-4-fluoro-6-isopropylphenyl)carbamoyl)-3-(diethylamino)propane-1-sulfonamide]
CCn1nc(S(=O)(=O)NC(=O)Nc2c(-c3cccc(OC)c3)ccc3c2CCC3)cc1CN(C)C [Example 194, 5-((Dimethylamino)methyl)-1-ethyl-N-((5-(3-methoxyphenyl)-2,3-dihydro-1H-inden-4-yl)carbamoyl)-1H-pyrazole-3-sulfonamide]
